Measured values published in ChEMBL document CHEMBL1201862, “PubChem BioAssay data set” (2004).
Blank lines part the entries; values can stand above or below the molecule they belong to. Calls of active or inactive are those of the source.

What was measured:
[1] = biological target: T1, Rac GTPase-activating protein 1 (Homo sapiens, UniProt Q9H0H5); experiment: blockers of MgcRacGAP-driven Rac1 GTP hydrolysis – biochemical, ADP Hunter fluorescence, primary and confirmatory, confirmation (AID 624330); format: functional
T1 sequence (Q9H0H5 whole entry): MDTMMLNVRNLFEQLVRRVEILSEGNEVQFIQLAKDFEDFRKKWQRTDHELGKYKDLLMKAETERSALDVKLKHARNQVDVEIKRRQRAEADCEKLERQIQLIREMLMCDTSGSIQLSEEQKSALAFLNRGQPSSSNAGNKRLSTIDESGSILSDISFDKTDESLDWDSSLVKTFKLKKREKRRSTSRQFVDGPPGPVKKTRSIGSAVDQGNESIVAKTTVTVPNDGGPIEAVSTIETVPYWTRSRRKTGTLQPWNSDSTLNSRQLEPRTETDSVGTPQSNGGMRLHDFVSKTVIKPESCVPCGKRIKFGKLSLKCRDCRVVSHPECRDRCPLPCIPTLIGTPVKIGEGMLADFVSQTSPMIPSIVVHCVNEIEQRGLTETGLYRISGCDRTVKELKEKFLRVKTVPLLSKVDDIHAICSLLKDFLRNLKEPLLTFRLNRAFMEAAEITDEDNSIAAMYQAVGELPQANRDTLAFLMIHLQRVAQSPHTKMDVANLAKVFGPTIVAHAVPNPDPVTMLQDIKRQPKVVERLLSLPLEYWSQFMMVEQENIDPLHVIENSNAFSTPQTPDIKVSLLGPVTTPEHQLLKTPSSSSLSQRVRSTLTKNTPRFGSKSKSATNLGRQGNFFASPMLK

[2] = biological target: T2, Sentrin-specific protease 8 (Homo sapiens, UniProt Q96LD8); format: functional;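 note: luminescence read-out of SENP8 inhibition, dose-response confirmation following an ultra-high-throughput screen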
T2 sequence (Q96LD8 whole entry): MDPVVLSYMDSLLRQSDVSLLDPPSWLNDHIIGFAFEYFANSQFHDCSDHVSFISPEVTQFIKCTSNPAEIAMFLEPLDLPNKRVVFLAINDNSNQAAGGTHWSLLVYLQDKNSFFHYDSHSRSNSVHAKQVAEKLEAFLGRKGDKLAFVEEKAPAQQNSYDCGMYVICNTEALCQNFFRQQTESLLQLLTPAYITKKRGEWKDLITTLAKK

[3] = biological target: T3, Caspase-3 (Homo sapiens, UniProt P42574); format: functional;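 note: Dose-response selectivity test against caspase-3 for candidate inhibitors of sentrin-specific proteases (SENPs)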
T3 sequence (P42574 whole entry): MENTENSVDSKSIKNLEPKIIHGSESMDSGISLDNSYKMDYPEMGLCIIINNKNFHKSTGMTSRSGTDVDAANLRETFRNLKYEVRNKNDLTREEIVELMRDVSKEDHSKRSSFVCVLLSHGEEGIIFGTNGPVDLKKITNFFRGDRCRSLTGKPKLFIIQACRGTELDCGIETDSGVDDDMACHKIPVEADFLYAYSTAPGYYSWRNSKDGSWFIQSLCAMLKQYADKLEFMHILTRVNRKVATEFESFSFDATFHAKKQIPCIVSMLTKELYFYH

[4] = biological target: T4, Sentrin-specific protease 7 (Homo sapiens, UniProt Q9BQF6); format: functional;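 note: Luminescence-based dose-response confirmation of ultra-high-throughput screening hits, measuring inhibition of SENP7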
T4 sequence (Q9BQF6 whole entry): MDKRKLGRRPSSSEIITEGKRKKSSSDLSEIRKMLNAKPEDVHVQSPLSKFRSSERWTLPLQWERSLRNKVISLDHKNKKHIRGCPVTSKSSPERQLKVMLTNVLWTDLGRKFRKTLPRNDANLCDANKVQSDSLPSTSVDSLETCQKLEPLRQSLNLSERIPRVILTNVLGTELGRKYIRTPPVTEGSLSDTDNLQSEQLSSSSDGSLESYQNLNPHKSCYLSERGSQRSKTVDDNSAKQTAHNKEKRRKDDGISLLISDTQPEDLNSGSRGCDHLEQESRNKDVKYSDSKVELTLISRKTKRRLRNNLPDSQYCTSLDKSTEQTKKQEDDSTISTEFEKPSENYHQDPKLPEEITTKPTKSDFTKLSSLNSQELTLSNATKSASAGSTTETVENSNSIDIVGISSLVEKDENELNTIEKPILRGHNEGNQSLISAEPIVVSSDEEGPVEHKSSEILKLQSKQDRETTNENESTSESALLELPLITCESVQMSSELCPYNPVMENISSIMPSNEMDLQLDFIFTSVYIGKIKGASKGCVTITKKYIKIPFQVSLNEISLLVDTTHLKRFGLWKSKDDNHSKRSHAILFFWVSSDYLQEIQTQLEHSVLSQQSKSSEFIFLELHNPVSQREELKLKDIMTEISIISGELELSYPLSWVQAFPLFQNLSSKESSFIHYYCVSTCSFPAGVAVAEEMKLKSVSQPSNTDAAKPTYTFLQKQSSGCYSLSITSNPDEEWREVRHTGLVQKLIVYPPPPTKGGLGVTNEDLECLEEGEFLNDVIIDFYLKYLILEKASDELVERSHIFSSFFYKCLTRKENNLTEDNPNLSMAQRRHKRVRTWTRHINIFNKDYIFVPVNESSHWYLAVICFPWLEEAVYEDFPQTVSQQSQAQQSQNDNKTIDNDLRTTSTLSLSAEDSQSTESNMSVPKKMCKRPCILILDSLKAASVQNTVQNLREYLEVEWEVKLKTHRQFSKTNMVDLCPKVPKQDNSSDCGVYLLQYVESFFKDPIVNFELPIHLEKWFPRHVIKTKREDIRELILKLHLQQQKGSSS

[5] = viability loss in HeLa cells – cytotoxicity control for MgcRacGAP inhibitor project, dose response (AID 624300); format: functional
[6] = biological target: T5, Sentrin-specific protease 6 (Homo sapiens, UniProt Q9GZR1); format: functional;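 note: Luminescence-based dose-response confirmatory assay of SENP6 inhibition, following up an ultra-high-throughput screen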
T5 sequence (Q9GZR1 whole entry): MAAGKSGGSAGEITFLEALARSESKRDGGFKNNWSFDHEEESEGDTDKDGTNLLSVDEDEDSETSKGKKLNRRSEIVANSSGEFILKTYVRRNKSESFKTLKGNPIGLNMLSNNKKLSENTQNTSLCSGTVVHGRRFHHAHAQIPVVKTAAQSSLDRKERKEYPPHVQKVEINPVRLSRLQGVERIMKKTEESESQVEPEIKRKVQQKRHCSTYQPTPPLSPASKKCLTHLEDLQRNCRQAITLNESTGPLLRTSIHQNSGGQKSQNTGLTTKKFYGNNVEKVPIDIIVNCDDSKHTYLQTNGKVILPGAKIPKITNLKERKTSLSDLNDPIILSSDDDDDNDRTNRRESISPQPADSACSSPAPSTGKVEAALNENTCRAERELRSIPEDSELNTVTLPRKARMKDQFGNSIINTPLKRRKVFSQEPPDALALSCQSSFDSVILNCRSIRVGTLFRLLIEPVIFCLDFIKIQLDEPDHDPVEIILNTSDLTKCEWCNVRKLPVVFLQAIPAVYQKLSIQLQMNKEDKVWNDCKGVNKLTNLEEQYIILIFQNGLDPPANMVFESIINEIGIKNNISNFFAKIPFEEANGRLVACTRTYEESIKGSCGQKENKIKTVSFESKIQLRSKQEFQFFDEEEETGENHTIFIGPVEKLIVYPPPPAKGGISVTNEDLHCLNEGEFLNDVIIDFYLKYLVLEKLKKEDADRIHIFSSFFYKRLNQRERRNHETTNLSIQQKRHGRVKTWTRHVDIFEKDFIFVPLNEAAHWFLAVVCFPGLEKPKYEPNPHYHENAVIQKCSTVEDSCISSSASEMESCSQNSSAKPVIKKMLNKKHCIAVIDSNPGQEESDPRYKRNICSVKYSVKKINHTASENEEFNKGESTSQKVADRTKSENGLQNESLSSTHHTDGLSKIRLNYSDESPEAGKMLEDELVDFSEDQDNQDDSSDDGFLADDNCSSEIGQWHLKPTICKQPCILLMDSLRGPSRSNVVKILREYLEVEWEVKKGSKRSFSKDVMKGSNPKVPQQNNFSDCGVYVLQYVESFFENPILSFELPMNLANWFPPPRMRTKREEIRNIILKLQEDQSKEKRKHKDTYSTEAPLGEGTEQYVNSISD

[7] = tested on: CHO; experiment: CHO cell viability loss, potency – luminescence, cytotoxicity control for TLR9-MyD88 binding inhibitor project, dose response (AID 588339); format: functional, cell-based, hamster; conditions: Cricetulus griseus;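 note: CHO cells stably coexpressing TLR9 and MyD88 fusions from primary screen; compound exposure lasted 48 hours before viability readout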
[8] = Fluorescence-based cell-based high throughput dose response assay for inhibitors of the interaction of nucleotide-binding oligomerization domain containing 2 (NOD2) and the receptor-interacting serine-threonine kinase 2 (RIPK2).; format: functional; conditions: Homo sapiens
[9] = cells; format: functional, cell-based
[10] = biological target: Beta-galactosidase (Escherichia coli, UniProt Q8VNN2); experiment: PubChem AID 485352; format: functional
[11] = cells; format: functional, cell-based; remark: listed apart in the source
[12] = biological target: T6, Type-1 angiotensin II receptor (Homo sapiens, UniProt P30556); experiment: antagonism of angiotensin II type 1 receptor – cell-based, uHTS hits, selectivity assay for APJ receptor antagonist project, dose response (AID 463214); format: functional;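 note: antagonist potency against angiotensin II stimulated AT1 response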
T6 sequence (P30556 whole entry): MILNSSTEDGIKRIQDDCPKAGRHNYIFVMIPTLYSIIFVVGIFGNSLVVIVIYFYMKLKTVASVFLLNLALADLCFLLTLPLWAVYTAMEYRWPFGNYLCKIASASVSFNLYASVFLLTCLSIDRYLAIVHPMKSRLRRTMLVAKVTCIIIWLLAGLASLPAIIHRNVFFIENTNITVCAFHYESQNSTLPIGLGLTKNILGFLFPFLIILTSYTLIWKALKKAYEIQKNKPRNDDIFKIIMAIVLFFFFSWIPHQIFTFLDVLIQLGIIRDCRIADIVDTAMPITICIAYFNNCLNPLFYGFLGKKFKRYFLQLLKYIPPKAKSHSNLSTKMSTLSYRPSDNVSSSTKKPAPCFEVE

[13] = biological target: T7, Beta Lactamase (Pseudomonas aeruginosa, UniProt Q932Y6); experiment: BLA reporter interference, concentration series – BLA reporter cells, FRET fluorescence, artefact control for TLR9-MyD88 binding inhibitor project, dose response (AID 588341); format: cell-based;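 note: cell based assay in CHO-K1 cells stably expressing beta-lactamase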
[14] = biological target: T7, Beta Lactamase; experiment: BLA reporter interference, concentration series – BLA reporter cells, FRET fluorescence, artefact control for NOD2-RIPK2 interaction inhibitor project, dose response (AID 651552); format: functional, cell-based
[15] = biological target: T8, Microphthalmia-associated transcription factor (Homo sapiens, UniProt O75030); experiment: reducers of TRPM1 reporter luminescence, concentration series – cell-based, SK-MEL-5, cherry-picked, set 3, MITF inhibitor project, dose response (AID 493073); format: functional;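 note: SK-MEL-5 melanoma cells with luciferase driven by the MITF target TRPM1 promoter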
T8 sequence (O75030 whole entry): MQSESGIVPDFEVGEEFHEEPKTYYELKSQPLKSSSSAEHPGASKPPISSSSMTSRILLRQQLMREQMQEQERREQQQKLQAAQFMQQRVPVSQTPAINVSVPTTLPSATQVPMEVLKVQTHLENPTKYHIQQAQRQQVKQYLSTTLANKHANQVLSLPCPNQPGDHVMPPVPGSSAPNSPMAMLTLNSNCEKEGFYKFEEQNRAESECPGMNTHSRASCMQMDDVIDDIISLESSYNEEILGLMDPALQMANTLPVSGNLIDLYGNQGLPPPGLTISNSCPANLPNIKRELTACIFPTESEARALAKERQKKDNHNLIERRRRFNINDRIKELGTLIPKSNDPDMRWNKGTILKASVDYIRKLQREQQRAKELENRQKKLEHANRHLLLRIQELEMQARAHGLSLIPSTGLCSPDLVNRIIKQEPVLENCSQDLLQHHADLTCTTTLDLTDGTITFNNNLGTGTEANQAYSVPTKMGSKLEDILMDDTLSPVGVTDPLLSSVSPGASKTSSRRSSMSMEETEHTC

[16] = biological target: T9, Methionyl-tRNA synthetase, putative (Trypanosoma brucei brucei, UniProt Q38C91); format: functional, Trypanosoma brucei brucei strain 927/4 GUTat10.1
[17] = biological target: T9, Methionyl-tRNA synthetase, putative; format: functional, Trypanosoma brucei brucei strain 927/4 GUTat10.1; remark: listed apart in the source
[18] = Counterscreen for inhibitors of Trypanosoma brucei methionyl tRNA synthetase (MetRS): Luminescence-based cell-based high throughput dose response assay to identify compounds that are cytotoxic to Jurkat human T lymphocyte cells.; format: functional

T9 sequence (Q38C91 whole entry): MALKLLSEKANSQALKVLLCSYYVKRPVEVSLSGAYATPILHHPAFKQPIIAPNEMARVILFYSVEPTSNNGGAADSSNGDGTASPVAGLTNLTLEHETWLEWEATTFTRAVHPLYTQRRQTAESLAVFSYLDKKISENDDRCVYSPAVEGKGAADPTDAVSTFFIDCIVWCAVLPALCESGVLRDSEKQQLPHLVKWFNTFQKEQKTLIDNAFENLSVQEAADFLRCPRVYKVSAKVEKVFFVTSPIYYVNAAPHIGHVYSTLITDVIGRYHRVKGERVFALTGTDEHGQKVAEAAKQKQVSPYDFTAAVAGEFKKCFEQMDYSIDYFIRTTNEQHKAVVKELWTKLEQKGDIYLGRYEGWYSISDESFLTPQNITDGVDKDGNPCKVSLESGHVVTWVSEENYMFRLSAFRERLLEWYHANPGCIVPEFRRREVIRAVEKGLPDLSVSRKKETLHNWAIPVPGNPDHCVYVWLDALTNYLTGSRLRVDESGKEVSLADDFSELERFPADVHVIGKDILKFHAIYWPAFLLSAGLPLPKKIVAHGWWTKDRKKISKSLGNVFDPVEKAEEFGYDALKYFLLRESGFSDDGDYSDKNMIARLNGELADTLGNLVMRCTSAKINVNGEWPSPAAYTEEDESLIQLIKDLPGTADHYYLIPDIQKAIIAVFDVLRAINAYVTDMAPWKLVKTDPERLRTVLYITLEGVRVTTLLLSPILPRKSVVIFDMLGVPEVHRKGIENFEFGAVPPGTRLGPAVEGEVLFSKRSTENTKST
T7 sequence (Q932Y6 whole entry): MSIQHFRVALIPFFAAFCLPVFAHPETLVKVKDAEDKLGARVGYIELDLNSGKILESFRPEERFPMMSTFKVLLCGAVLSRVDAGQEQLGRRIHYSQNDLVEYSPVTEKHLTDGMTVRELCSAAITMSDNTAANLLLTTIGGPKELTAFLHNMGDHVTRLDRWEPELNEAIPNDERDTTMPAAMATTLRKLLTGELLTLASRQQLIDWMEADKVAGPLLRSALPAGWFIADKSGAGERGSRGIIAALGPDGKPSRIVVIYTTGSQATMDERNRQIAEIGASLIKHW
Chain of Beta-galactosidase (Q8VNN2 whole entry): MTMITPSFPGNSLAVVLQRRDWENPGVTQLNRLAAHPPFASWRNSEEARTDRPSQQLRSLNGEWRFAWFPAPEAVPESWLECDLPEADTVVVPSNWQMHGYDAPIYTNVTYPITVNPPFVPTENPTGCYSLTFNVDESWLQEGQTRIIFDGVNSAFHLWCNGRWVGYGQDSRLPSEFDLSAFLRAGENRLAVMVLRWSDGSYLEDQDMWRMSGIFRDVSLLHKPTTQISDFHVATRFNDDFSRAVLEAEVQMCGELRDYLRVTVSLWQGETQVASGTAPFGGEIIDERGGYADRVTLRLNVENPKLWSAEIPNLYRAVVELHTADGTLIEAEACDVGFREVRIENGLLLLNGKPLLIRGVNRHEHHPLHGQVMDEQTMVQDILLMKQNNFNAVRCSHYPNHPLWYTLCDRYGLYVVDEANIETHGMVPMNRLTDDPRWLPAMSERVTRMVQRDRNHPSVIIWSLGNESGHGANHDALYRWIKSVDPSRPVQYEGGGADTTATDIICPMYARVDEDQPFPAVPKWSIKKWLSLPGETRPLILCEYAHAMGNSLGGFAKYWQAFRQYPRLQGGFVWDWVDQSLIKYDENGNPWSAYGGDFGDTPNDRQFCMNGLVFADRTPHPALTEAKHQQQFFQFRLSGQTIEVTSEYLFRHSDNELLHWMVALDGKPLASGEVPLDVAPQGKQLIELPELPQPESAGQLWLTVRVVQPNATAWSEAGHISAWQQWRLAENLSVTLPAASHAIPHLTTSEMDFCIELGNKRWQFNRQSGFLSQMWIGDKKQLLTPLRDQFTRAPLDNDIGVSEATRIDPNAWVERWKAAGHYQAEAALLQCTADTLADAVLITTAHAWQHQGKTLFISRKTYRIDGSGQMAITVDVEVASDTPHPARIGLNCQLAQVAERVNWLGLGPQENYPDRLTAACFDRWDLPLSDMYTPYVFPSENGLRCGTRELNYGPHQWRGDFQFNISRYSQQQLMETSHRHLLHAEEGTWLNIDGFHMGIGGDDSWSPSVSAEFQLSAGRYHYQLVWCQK

- IC50 [1]: 230 µM (active)
- IC50 [3]: 25.5 µM (active)
- IC50 [4]: 6.04 µM (active)
- IC50 [6]: 15.1 µM (active)
Compound: COc1ccc(NC(=O)n2ncc3cc(Cl)ccc32)cc1OC
- IC50 [2]: 20.3 µM (active)
- CC50 [5]: 100 µM (active)

Compound: COc1ccc(C(=O)/C=C/C(=O)N(CC(=O)NC2CCCCC2)CC2CCCO2)c(O)c1 (stereo not drawn)
- IC50 [7]: 1.84 µM (active)
- IC50 [8]: 2.17 µM (active)
- EC50 [9]: 34.3 µM (active)
- EC50 [10]: > 40 µM (inactive)
- EC50 [11]: > 350 µM (not active)
- IC50 [12]: 5.35 µM (active)
- IC50 [13]: 23.3 µM (inactive)
- IC50 [14]: 19.9 µM (inactive)
- AC50 [15]: 4.01 µM (active)

Compound: Cc1ccc(NC(=O)C=NOCC(=O)Nc2cc(C)cc(C)c2)cc1
- IC50 [16]: 8.66 µM (active)
- IC50 [17]: 119 µM (inactive)
- IC50 [18]: 83.3 µM (inactive)
